# Laboratory results taken from patent publication US20260224758A1, “ALPHA-SYNUCLEIN BINDERS AND METHODS OF USE” (Merck Sharp & Dohme LLC, priority 2023, published 2026).
# Like-named read-outs stand apart in the source and are kept apart here.
# Tests used:
# [1] = target: T1, triton-extracted alpha-synuclein from PD Tissue (Homo sapiens, UniProt P37840); assay: Alpha-synuclein tissue homogenate binding assay (Assay 1), displacement of [^3H]-1000; settings: for Selectivity ratio (Assay 2/Assay 1): Aβ Tissue Ki / α-synuclein Tissue Ki; for Ki: read-out: α-synuclein Tissue Ki (Assay 1)
# T1 construct: tissue Analytic Biological Services Inc; host or cells: human PD temporal cortex grey matter, Triton X-100 insoluble pellet
# Experimental: Frozen human brain tissues from PD patients were purchased from Analytic Biological Services Inc. The samples were post-mortem tissues from donors with clinical diagnosis of late stage of PD. Alpha-synuclein, tau and amyloid burden was determined through a combination of immunohistochemistry on frozen thin coronal sections, as well as alpha Lisa-based quantification of protein levels in a detergent insoluble protein fraction. A tissue sample of temporal cortex was identified from one donor as having moderate to high alpha-synuclein burden, low amyloid and minimal to no tau pathology. The detergent insoluble fraction of temporal cortex from this patient was used to support homogenate binding studies. Grey matter was dissected out of the temporal cortex tissue with a dissecting blade and minced with fine dissecting scissors. […] Homogenates were centrifuged at 100,000×g for 45 minutes. The pellet was resuspended in TBS-TX buffer, using a Polytron at highest setting for 30 seconds at 4° C. Homogenates were centrifuged at 100,000×g for 45 minutes and the pellet was resuspended in TBS-TX buffer. A BCA protein assay was performed on the final homogenate to determine the protein concentration. […] For displacement a-synuclein binding assay, compounds and control were solvated in dimethyl sulfoxide (DMSO) and transferred using focused acoustic energy by an Echo 655 liquid handling instrument (Beckman Coulter, Indianapolis, IN) into designated wells of uniquely bar coded 96-well v-bottom low binding polypropylene microplates (Thermo Scientific, 249946). Compound dose response curves were prepared in a 10-point, 3-fold fashion within columns 2-11 of the microplate from high to low compound concentrations. […] Liquid-handling steps for dispensing insoluble fractions of PD brain homogenates and radioligand were performed using a Bravo automated liquid handling platform equipped with a 96LT disposable tip head (Agilent Technologies, Santa Clara. CA). […] The incubation was terminated by rapid filtration through UniFilter-96 GF/C microplates (pre-treated for 30 minutes with 0.2% Polyethylenimine at 4° C.) by using a FilterMate Harvester (PerkinElmer). […] The bottom of each UniFilter-96 GF/C microplate was adhesively sealed (PerkinElmer 6005199) prior to the addition of 50 μL MicroScint-20 liquid scintillation cocktail (PerkinElmer 6013621) to each well. A clear adhesive seal (TopSeal-A PLUS, PerkinElmer 6050185) was then applied to the top of each microplate and counted 1 minute/well on MicroBeta^2 system (PerkinElmer.
# [2] = target: aggregated beta amyloid in AD tissue (Homo sapiens, UniProt P05067); assay: Competitive radioligand binding to pathological aggregated beta amyloid in AD tissue (Assay 2), displacement of [^3H]-105; settings: Aβ-rich AD frontal cortex homogenate, [^3H]-105, Kd 11.0 nM
# [3] = insoluble fraction of PD brain homogenate, [^3H]-1000 3.0 nM, Kd 0.90 nM
# aggregated beta amyloid in AD tissue, sequence (P05067 672-711 limits assumed): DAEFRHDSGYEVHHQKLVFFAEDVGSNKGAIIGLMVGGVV
Structure (SMILES),Selectivity ratio (Assay 2/Assay 1) [1],"Ki [1, 3] [nM]",Ki [2] [nM],Ki [1] [nM]
"COC[C@H]1CN(c2cc(F)ccn2)CCN1c1ncc(/C=C/c2ccc(N3CCOCC3)nc2)cn1 [Example 16, (R,E)-4-(5-(2-(2-(4-(4-fluoropyridin-2-yl)-2-(methoxymethyl)piperazin-1-yl)pyrimidin-5-yl)vinyl)pyridin-2-yl)morpholine]",281,1.6,450,
"COC[C@H]1CN(c2cc(F)ccn2)CCN1c1ncc(/C=C/c2ccc(-n3ccnc3)nc2)cn1 [Example 17, (R,E)-5-(2-(6-(1H-imidazol-1-yl)pyridin-3-yl)vinyl)-2-(4-(4-fluoropyridin-2-yl)-2-(methoxymethyl)piperazin-1-yl)pyrimidine]",13333,,≥ 12000,
"COC[C@H]1CN(c2ccccn2)CCN1c1ncc(/C=C/c2ccc(-n3ccnc3)nc2)cn1 [Example 18, (R,E)-5-(2-(6-(1H-imidazol-1-yl)pyridin-3-yl)vinyl)-2-(2-(methoxymethyl)-4-(pyridin-2-yl)piperazin-1-yl)pyrimidine]",24000,0.5,≥ 12000,
"COC[C@H]1CN(c2ccccn2)CCN1c1ncc(/C=C/c2cnc3nc(C)cn3c2)cn1 [Example 19, (R,E)-6-(2-(2-(2-(methoxymethyl)-4-(pyridin-2-yl)piperazin-1-yl)pyrimidin-5-yl)vinyl)-2-methylimidazo[1,2-a]pyrimidine]",8571,1.4,≥ 12000,
"COC[C@H]1CN(c2ccccn2)CCN1c1ncc(/C=C/c2ccc(-c3ncco3)nc2)cn1 [Example 20, (R,E)-2-(5-(2-(2-(2-(methoxymethyl)-4-(pyridin-2-yl)piperazin-1-yl)pyrimidin-5-yl)vinyl)pyridin-2-yl)oxazole]",7059,1.7,≥ 12000,
"COC[C@H]1CN(c2cc3cnccn3c2)CCN1c1ncc(/C=C/c2ccc(-n3cccn3)nc2)cn1 [Example 21, (R,E)-7-(4-(5-(2-(6-(1H-pyrazol-1-yl)pyridin-3-yl)vinyl)pyrimidin-2-yl)-3-(methoxymethyl)piperazin-1-yl)pyrrolo[1,2-a]pyrazine]",10000,,13000,1.3
"COC[C@H]1CN(c2ncc(/C=C/c3ccc(-n4ccnc4)nc3)cn2)CCN1c1ccccn1 [Example 22, (R,E)-5-(2-(6-(1H-imidazol-1-yl)pyridin-3-yl)vinyl)-2-(3-(methoxymethyl)-4-(pyridin-2-yl)piperazin-1-yl)pyrimidine]",1857,0.7,1300,
"OC[C@H]1CN(c2cnccn2)CCN1c1ncc(/C=C/c2ccc(-n3ccnc3)nc2)cn1 [Example 23, (R,E)-(1-(5-(2-(6-(1H-imidazol-1-yl)pyridin-3-yl)vinyl)pyrimidin-2-yl)-4-(pyrazin-2-yl)piperazin-2-yl)methanol]",10000,,≥ 12000,1.2
"OC[C@H]1CN(c2ccncn2)CCN1c1ncc(/C=C/c2ccc(-n3ccnc3)nc2)cn1 [Example 24, (R,E)-(1-(5-(2-(6-(1H-imidazol-1-yl)pyridin-3-yl)vinyl)pyrimidin-2-yl)-4-(pyrimidin-4-yl)piperazin-2-yl)methanol]",240,0.5,120,
"COC[C@H]1CN(c2ncc(C)cn2)CCN1c1ncc(/C=C/c2ccc(-n3ccnc3)nc2)cn1 [Example 25, (R,E)-5-(2-(6-(1H-imidazol-1-yl)pyridin-3-yl)vinyl)-2-(2-(methoxymethyl)-4-(5-methylpyrimidin-2-yl)piperazin-1-yl)pyrimidine]",400,0.9,360,
"COC[C@H]1CN(c2ccccn2)CCN1c1ncc(/C=C/c2ccc(-c3cnco3)nc2)cn1 [Example 26, (R,E)-5-(5-(2-(2-(2-(methoxymethyl)-4-(pyridin-2-yl)piperazin-1-yl)pyrimidin-5-yl)vinyl)pyridin-2-yl)oxazole]",3871,3.1,≥ 12000,
"COC[C@H]1CN(c2ncc(/C=C/c3ccc(-n4ccnc4)nc3)cn2)CCN1c1ncc(F)cn1 [Example 27, (R,E)-5-(2-(6-(1H-imidazol-1-yl)pyridin-3-yl)vinyl)-2-(4-(5-fluoropyrimidin-2-yl)-3-(methoxymethyl)piperazin-1-yl)pyrimidine]",44,1.8,80,
"COC[C@H]1CN(c2ccnc(F)c2)CCN1c1ncc(/C=C/c2ccc(-n3ccnc3)nc2)cn1 [Example 29, (R,E)-5-(2-(6-(1H-imidazol-1-yl)pyridin-3-yl)vinyl)-2-(4-(2-fluoropyridin-4-yl)-2-(methoxymethyl)piperazin-1-yl)pyrimidine]",180,1,180,
"FCCOC[C@H]1CN(c2ncccn2)CCN1c1ncc(/C=C/c2ccc(-n3ccnc3)nc2)cn1 [Example 30, (R,E)-5-(2-(6-(1H-imidazol-1-yl)pyridin-3-yl)vinyl)-2-(2-((2-fluoroethoxy)methyl)-4-(pyrimidin-2-yl)piperazin-1-yl)pyrimidine]",12000,1,≥ 12000,
"FCCOC[C@H]1CN(c2ccncc2)CCN1c1ncc(/C=C/c2ccc(-n3ccnc3)nc2)cn1 [Example 31, (R,E)-5-(2-(6-(1H-imidazol-1-yl)pyridin-3-yl)vinyl)-2-(2-((2-fluoroethoxy)methyl)-4-(pyridin-4-yl)piperazin-1-yl)pyrimidine]",2600,0.5,1300,
"COC[C@H]1CN(c2ccc(F)nc2)CCN1c1ncc(/C=C/c2ccc(-n3ccnc3)nc2)cn1 [Example 32, (R,E)-5-(2-(6-(1H-imidazol-1-yl)pyridin-3-yl)vinyl)-2-(4-(6-fluoropyridin-3-yl)-2-(methoxymethyl)piperazin-1-yl)pyrimidine]",13333,0.9,≥ 12000,
"OC[C@H]1CN(c2ccc(F)nc2)CCN1c1ncc(/C=C/c2ccc(-n3ccnc3)nc2)cn1 [Example 33, (R,E)-(1-(5-(2-(6-(1H-imidazol-1-yl)pyridin-3-yl)vinyl)pyrimidin-2-yl)-4-(6-fluoropyridin-3-yl)piperazin-2-yl)methanol]",6667,,≥ 12000,1.8
"COC[C@H]1CN(c2ncc(/C=C/c3ccc(-n4ccnc4)nc3)cn2)CCN1c1ccnc(F)n1 [Example 34, (R,E)-4-(4-(5-(2-(6-(1H-imidazol-1-yl)pyridin-3-yl)vinyl)pyrimidin-2-yl)-2-(methoxymethyl)piperazin-1-yl)-2-fluoropyrimidine]",6667,1.8,≥ 12000,
"FCCOC[C@H]1CN(c2ncc(/C=C/c3ccc(-c4cnco4)nc3)cn2)CCN1c1ncccn1 [Example 36, (R,E)-5-(5-(2-(2-(3-((2-fluoroethoxy)methyl)-4-(pyrimidin-2-yl)piperazin-1-yl)pyrimidin-5-yl)vinyl)pyridin-2-yl)oxazole]",12000,0.94,≥ 12000,
"COC[C@H]1CN(c2ncc(/C=C/c3ccc(-c4cnn(CCF)c4)nc3)cn2)CCN1c1ncccn1 [Example 37, (R,E)-5-(2-(6-(1-(2-fluoroethyl)-1H-pyrazol-4-yl)pyridin-3-yl)vinyl)-2-(3-(methoxymethyl)-4-(pyrimidin-2-yl)piperazin-1-yl)pyrimidine]",1935,0.62,≥ 1200,
"FCCOCCOC[C@H]1CN(c2ncc(/C=C/c3ccc(-c4cnco4)nc3)cn2)CCN1c1ncncn1 [Example 38, (R,E)-5-(5-(2-(2-(3-((2-(2-fluoroethoxy)ethoxy)methyl)-4-(1,3,5-triazin-2-yl)piperazin-1-yl)pyrimidin-5-yl)vinyl)pyridin-2-yl)oxazole]",600,2,≥ 1200,
"Cc1cn(-c2ccc(/C=C/c3cnc(N4CCN(c5ncccn5)[C@@H](COCCF)C4)nc3)cn2)cn1 [Example 40, (R,E)-2-(3-((2-fluoroethoxy)methyl)-4-(pyrimidin-2-yl)piperazin-1-yl)-5-(2-(6-(4-methyl-1H-imidazol-1-yl)pyridin-3-yl)vinyl)pyrimidine]",2857,,≥ 1200,0.42
